Source: the supplement of paper PMC11061612

Columns and labels:
Assay in all cases: combination Emax (second highest fraction inhibited in the dose matrix, 72 h); higher = more inhibition; extreme values may be limits of the assay
[1] = tested on: P32-ISH (Burkitt's Lymphoma)
How it was run: (§1)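 After 24 hours at 37°C and 5% CO2 in 1536-well plates, cells in DMEM/F12 or RPMI plus 10% FBS received two-drug dose matrices for 72 hours. Viability came from CellTiter-Glo 2.0 luminescence and was scaled as inhibition, anchored at 0 by vehicle wells and at 1 by blank wells. Combination Emax is taken as the second-highest inhibition in the matrix, and Bliss excess as the observed combination effect less EA + EB − EA·EB, with EA and EB the single-agent effects.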

[2] = tested on: SUP-M2 (T-Cell Non-Hodgkin's Lymphoma)
How it was run: as §1

[3] = tested on: MOLT-13 (T-Lymphoblastic Leukemia)
How it was run: as §1

[4] = tested on: SNU-423 (Hepatocellular Carcinoma)
How it was run: as §1

[5] = tested on: SKG-IIIa (Cervical Carcinoma)
How it was run: as §1

[6] = tested on: Raji (Burkitt's Lymphoma)
How it was run: as §1

[7] = tested on: T84 (Colorectal Carcinoma)
How it was run: as §1

[8] = tested on: PA-TU-8988T (Pancreatic Carcinoma)
How it was run: as §1

[9] = tested on: CL-11 (Colorectal Carcinoma)
How it was run: as §1

[10] = tested on: NMC-G1 (Low Grade Glioma)
How it was run: as §1

[11] = tested on: TUR (Acute Myeloid Leukemia)
How it was run: as §1

[12] = tested on: SNU-407 (Colorectal Carcinoma)
How it was run: as §1

NB1 (Neuroblastoma) = tested on: NB1 (Neuroblastoma)
How it was run: as §1

[13] = tested on: MDA-MB-415 (Breast Carcinoma)
How it was run: as §1

[14] = tested on: RCC-JW (Kidney Carcinoma)
How it was run: as §1

[15] = tested on: NCI-H1963 (Small Cell Lung Carcinoma)
How it was run: as §1

WM35 (Melanoma) = tested on: WM35 (Melanoma)
How it was run: as §1

[16] = tested on: NCI-H596 (Other Solid Carcinomas)
How it was run: as §1

[17] = tested on: NCI-H1876 (Small Cell Lung Carcinoma)
How it was run: as §1

[18] = tested on: MONO-MAC-6 (Acute Myeloid Leukemia)
How it was run: as §1

Structure (SMILES) | combination Emax [1] | combination Emax [2] | combination Emax [3] | combination Emax [4] | combination Emax [5] | combination Emax [6] | combination Emax [7] | combination Emax [8] | combination Emax [9] | combination Emax [10] | combination Emax [11] | combination Emax [12] | combination Emax (NB1 (Neuroblastoma)) | combination Emax [13] | combination Emax [14] | combination Emax [15] | combination Emax (WM35 (Melanoma)) | combination Emax [16] | combination Emax [17] | combination Emax [18]
COc1cc2c(cc1OCCCCCOc1cc3c(cc1OC)C(=O)N1C=C(C)C[C@H]1C=N3)N=C[C@@H]1CC(C)=CN1C2=O [SG3199] + O=C(c1cc(Cc2n[nH]c(=O)c3ccccc23)ccc1F)N1CCN(C(=O)C2CC2)CC1 [Olaparib] (first compound max 0.001 µM, 7x7, partner max 10 µM) | 0.247 | 0.839 | 0.226 | 0.146 | 0.144 | 0.43 | 0.0664 | 0.206 | 0.111 | 0.183 | 0.112 | 0.182 | 0.187 | 0.0958 | 0.0774 | 0.293 | 0.144 | 0.202 | 0.7 | 0.234
CCc1c2c(nc3ccc(O)cc13)-c1cc3c(c(=O)n1C2)COC(=O)[C@]3(O)CC [SN-38] + O=C(c1cc(Cc2n[nH]c(=O)c3ccccc23)ccc1F)N1CCN(C(=O)C2CC2)CC1 [Olaparib] (first compound max 0.3 µM, 7x7, partner max 10 µM) | 1 | 1 | 1 | 0.495 | 0.389 | 0.956 | 0.528 | 0.604 | 0.776 | 0.246 | 0.994 |  |  | 0.321 | 0.616 | 0.854 | 0.448 |  |  | 1
Cc1c2c(nn1C)CSCc1cc(n(C)n1)CSc1cc(c3ccccc3c1)OCCCc1c(C(=O)O)n(C)c3c-2c(Cl)ccc13 [AZD5991] + CCN(CCO)CCCOc1ccc2c(Nc3cc(CC(=O)Nc4cccc(F)c4)[nH]n3)ncnc2c1 [AZD2811] (first compound max 1 µM, 7x7, partner max 1 µM) | 1 | 1 | 1 | 0.335 | 0.235 | 0.776 | 0.177 | 0.775 |  | 0.305 | 0.536 | 0.694 | 0.694 | 0.56 | 0.251 | 0.842 | 0.243 |  | 0.998 | 1
COc1nnc2ccc(N3CCC(c4ccc(OCCN5CCN(C)C(=O)[C@H]5C)cc4)CC3)nn12 [AZD5153] + Cc1c2c(nn1C)CSCc1cc(n(C)n1)CSc1cc(c3ccccc3c1)OCCCc1c(C(=O)O)n(C)c3c-2c(Cl)ccc13 [AZD5991] (first compound max 1 µM, 7x7, partner max 1 µM) | 1 | 1 | 1 | 0.431 | 0.471 | 0.896 | 0.23 | 0.886 | 0.768 |  | 0.998 | 0.977 | 0.52 | 0.693 | 0.3 | 0.89 | 0.798 | 0.79 | 0.949 | 1
C[C@@H](c1ccc2nccn2c1)n1nnc2ncc(-c3cnn(C)c3)nc21 [Savolitinib] + CC1(C)CCC(CN2CCN(c3ccc(C(=O)NS(=O)(=O)c4ccc(NCC5CCOCC5)c([N+](=O)[O-])c4)c(Oc4cnc5[nH]ccc5c4)c3)CC2)=C(c2ccc(Cl)cc2)C1 [Venetoclax] (first compound max 1 µM, 7x7, partner max 1 µM) | 0.0681 | 0.182 | 0.467 | 0.233 | 0.12 | 0.171 | 0.0875 | 0.165 | 0.09 |  | 0.0127 | 0.231 | 0.0333 | 0.261 | 0.124 | 0.422 | 0.162 | 0.229 | 0.0954 | 0.213
Cc1nc(Nc2ncc(C(=O)Nc3c(C)cccc3Cl)s2)cc(N2CCN(CCO)CC2)n1 [Dasatinib] + CC(=O)Nc1cccc(-n2c(=O)n(C3CC3)c(=O)c3c(Nc4ccc(I)cc4F)n(C)c(=O)c(C)c32)c1 [Trametinib] (first compound max 2 µM, 7x7, partner max 1 µM) | 0.411 | 0.126 | 0.559 | 0.832 | 0.5 | 0.134 | 0.816 | 0.887 | 0.961 |  | 0.308 | 0.756 | 0.139 | 0.385 | 0.859 | 0.38 | 0.837 | 0.607 | 0.165 | 0.589
NC1(C(=O)N[C@@H](CCO)c2ccc(Cl)cc2)CCN(c2ncnc3[nH]ccc23)CC1 [Capivasertib] + CC(C)n1c(=O)n(C)c2cnc3cc(F)c(-c4ccc(OCCCN5CCCCC5)nc4)cc3c21 [AZD1390] (first compound max 10 µM, 7x7, partner max 0.3 µM) | 0.557 | 0.19 | 0.132 | 0.503 | 0.244 | 0.185 | 0.367 | 0.278 | 0.223 |  | 0.809 | 0.503 | 0.626 | 0.846 | 0.387 | 0.434 | 0.259 | 0.542 | 0.172 | 0.594
